Measurements published in PMC7756392, “Syntheses of Thailandepsin B Pseudo‐Natural Products: Access to New Highly Potent HDAC Inhibitors via Late‐Stage Modification” (Chemistry (Weinheim an Der Bergstrasse, Germany), 2020).

Key:
HeLa cells = test: MTS cell viability assay, HeLa; assay type: cell-based; settings: for GI50 (in words): MTS assay, 72 h
Method: hHDAC1/6: Activity assays were performed in OptiPlateTM-96 F black microplates (PerkinElmer). Commercial available enzymes (human recombinant HDAC1; BPS Bioscience, catalog no. 50051 and human recombinant HDAC6; BPS Bioscience, catalog no. 50006) were used. Total assay volume of 60 µL contains 42 µl of assay buffer (50 mM Tris -HCl, pH 8.0, 137 mM NaCl, 2.7 mM KCl, 1 mM MgCl2, 0.2 mM TCEP and 1 mg/mL bovine serum albumin), 10 µL of enzyme solution in assay buffer, 3 µL of increasing concentrations of inhibitors in DMSO and 5 μL of the fluorogenic substrate ZMAL (Z -(Ac)Lys-AMC) (126 μM). After incubation (90 min, 37 °C) 60 µL of stop solution, containing 5 μL Trichostatin A (TSA) (33 μM) and 10 μL trypsin (6 mg/mL) in trypsin buffer (Tris-HCl 50 mM, pH 8.0, NaCl 100 mM), were added. After incubation (30 min at 37 °C) fluorescence signal (λex = 390 nm, λem = 460 nm) was measured on a BMG LABTECH POLARstar OPTIMA plate reader (BMG Labtechnologies, Germany).10 hHDAC8: Enzyme was obtained from cooperation partners (Romier).11 Assay was performed as described before. […] After incubation (30 min at 37 °C) fluorescence signal was determined as mentioned for HDAC1/6.12 […]
Cell proliferation was determined by using the Celltiter 96 AQueous nonradioactive Proliferation Assay (Promega). After 72h of incubation time with inhibitor or DMSO, 20 µL of a mixture (20:1) consisting of MTS (3-(4,5-dimethylthiazol-2-yl)-5-(3-carboxymethoxyphenyl)-2-(4-sulfophenyl-2H-tetrazolium) and PMS (phenazine methosulfate) were added to each well. Absorption was measured after another 2-4 h with a BMG LABTECH POLARstar OPTIMA plate reader (BMG Labtechnologies, Germany).
Experiments were performed in triplicates and GI50 values were calculated using the software Origin 2019. […]
CO2. […] After another 20 min of incubation, the fluorescence signal (λex = 390 nm, λem = 460 nm) was measured on a BMG LABTECH POLARstar OPTIMA plate reader (BMG Labtechnologies, Germany). […]

hHDAC8 = target: T1, hHDAC8 (Homo sapiens, UniProt Q9BY41); test: ZMTFAL trypsin assay, HDAC8; assay type: biochemical
T1 sequence (Q9BY41 1-377): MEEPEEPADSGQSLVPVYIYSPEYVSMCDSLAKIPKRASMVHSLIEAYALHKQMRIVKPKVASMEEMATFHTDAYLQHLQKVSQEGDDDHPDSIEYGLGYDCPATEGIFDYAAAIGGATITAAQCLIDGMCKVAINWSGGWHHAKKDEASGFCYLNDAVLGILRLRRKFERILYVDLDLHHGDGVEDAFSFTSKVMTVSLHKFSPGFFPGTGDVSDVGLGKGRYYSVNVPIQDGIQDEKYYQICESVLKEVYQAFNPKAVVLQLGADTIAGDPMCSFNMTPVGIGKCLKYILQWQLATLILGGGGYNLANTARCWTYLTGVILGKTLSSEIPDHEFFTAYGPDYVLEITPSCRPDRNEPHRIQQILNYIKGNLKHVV
Method: [28] Assays for HDAC1/6 were prepared according to: B. Heltweg , J. Trapp , M. Jung , Methods 2005, 36, 332–337; assays for HDAC8 were prepared according to: J. Senger , J. Melesina , M. Marek , C. Romier , I. Oehme , O. Witt , W. Sippl , M. Jung , J. Med. Chem. 2016, 59, 1545–1555. […]
After […]
incubation (30 min at 37 °C) fluorescence signal (λex = 390 nm, λem = 460 nm) was measured on a BMG LABTECH POLARstar OPTIMA plate reader (BMG Labtechnologies, Germany).10 hHDAC8: Enzyme was obtained from cooperation partners (Romier).11 Assay was performed as described before. 22.5 µL of enzyme solution in assay buffer (15 mM Tris, pH 7.5, 50 mM KH2PO4, 10 mM KCl, 3 mM MgSO4·7H2O and 0.2 mM TCEP), increasing inhibitor concentrations in DMSO (2.5 μL) and 5 µL of ZMTFAL substrate solution ([…]) were incubated for 90 min at 37 °C in ½ AreaPlate-96 F microplates (PerkinElmer). 30 µL of stop solution (see HDAC1/6) were added. After incubation (30 min at 37 °C) fluorescence signal was […]

SMILES	inhibition at 5 µM (HeLa cells; Homo sapiens, 5 μM, read-out: inhibition of cell growth at 5 μM)	inhibition at 10 µM (hHDAC8)	GI50 (in words) (HeLa cells)
CCCC[C@H]1NC(=O)C[C@@H](/C=C/CCC(=O)NO)OC(=O)C[C@H](O)[C@@H]([C@@H](C)CC)NC(=O)[C@@H](C)NC1=O [compound 8]	30%	21%	–
CCCC[C@H]1NC(=O)C[C@@H](/C=C/CCSC(C)=O)OC(=O)C[C@H](O[Si](C)(C)C(C)(C)C)[C@@H]([C@@H](C)CC)NC(=O)[C@@H](C)NC1=O [compound 32]	–	30%	micromolar
CCCC[C@H]1NC(=O)C[C@@H](/C=C/CCSC(C)=O)OC(=O)C[C@H](O)[C@@H]([C@@H](C)CC)NC(=O)[C@@H](C)NC1=O [compound 33]	–	22%	nanomolar
